Results taken from paper PMC4515429, “Anti-Biofilm and Immunomodulatory Activities of Peptides That Inhibit Biofilms Formed by Pathogens Isolated from Cystic Fibrosis Patients” (Antibiotics, 2014).
≈ marks a conversion by molar mass, not a printed value. Like-named read-outs stand apart in the source and are kept apart here. Where a SMILES comes first, the peptide text is derived from it. Bridges are numbered along the chain shown (N, C = ends). Where no end group is shown, it is not given here. [ ]: non-standard residue; d: D form. The star is where a group is joined. X1 = CC[C@H](C)CCCCC(=O)*; Dab = NCC[C@H](N)C(=O)O

What was measured:
[1] = test system: B. ambifaria CEP0996 (VII); details: 18 h
Method: (§1) In addition to the wild type lab isolates Pseudomonas aeruginosa strains PAO1 and PA14, a variety of cystic fibrosis clinical isolates of P. aeruginosa and Burkholderia cepacia complex strains were utilized (Table 1). Planktonic cells from each of the P. aeruginosa and B. cepacia strains were grown in BM2 glucose or cation-adjusted Mueller-Hinton. The minimal inhibitory concentration (MIC) for peptides in brain-heart infusion (BHI) was assessed by the broth microdilution method with minor modifications for cationic peptides. […] MIC assays were performed in sterile 96-well polypropylene microtiter plates. […] The plates were incubated at 37 °C for 18 h.

[2] = test system: B. cenocepacia 4813 (IIIa); details: 18 h
Method: as §1

[3] = test system: B. cenocepacia C5424 (IIIa); details: 18 h
Method: as §1

[4] = test system: B. cenocepacia CEP0055 (IIIb); details: 18 h
Method: as §1

[5] = test system: B. cenocepacia CEP509 (IIIb); details: 18 h
Method: as §1

[6] = test system: B. dolosa CEP0021 (VI); details: 18 h
Method: as §1

[7] = test system: B. multivorans D2661 (Genomovar II); details: 18 h
Method: as §1

[8] = test system: B. stabilis C6061 (IV); details: 18 h
Method: as §1

[9] = test system: P. aeruginosa 1172 (Classic)
Method: as §1

[10] = test system: P. aeruginosa 2631 (Classic)
Method: as §1

[11] = test system: P. aeruginosa 2639 (Mucoid)
Method: as §1

[12] = test system: P. aeruginosa 3195 (Classic)
Method: as §1

[13] = test system: P. aeruginosa 3330 (Classic)
Method: as §1

[14] = test system: P. aeruginosa 4020 (Classic)
Method: as §1

[15] = test system: P. aeruginosa 4608 (Mucoid)
Method: as §1

[16] = test system: P. aeruginosa 7632 (Classic)
Method: as §1

[17] = test system: P. aeruginosa 7633 (Entire)
Method: as §1

[18] = test system: P. aeruginosa C2773 (Classic)
Method: as §1

[19] = test system: P. aeruginosa C4276 (Classic)
Method: as §1

[20] = test system: P. aeruginosa C4278 (Mucoid)
Method: as §1

[21] = test system: P. aeruginosa PA01; details: 18 h
Method: as §1

[22] = test system: P. aeruginosa PA14
Method: as §1

[23] = test system: P. aeruginosa; details: at one sixteenth the minimum inhibitory concentration (MIC); cited from earlier work
Excerpt: Cationic host defense (antimicrobial) peptides represent a novel alternative to conventional antibiotics. […] Similar results were subsequently shown by other groups. This encouraged t ...

[24] = test system: planktonic cells of Burkholderia strains
Method: as §1

[25] = test system: P. aeruginosa PA14; assay: Anti-biofilm activity, BioFlux apparatus; assay type: cell-based, Pseudomonas aeruginosa; details: 15 µg/mL peptide
[26] = test system: monocyte chemotactic protein-1 (MCP-1) production by human peripheral blood mononuclear cells; assay: MCP-1 induction in PBMCs, sandwich ELISA; assay type: cell-based; details: 24 h; for level of MCP-1 induction at 100 µg/mL: 100 µg/mL peptide; for MCP-1 induction: 20 and 100 µg/mL peptide, cf. untreated control
Method: (§2) (A) Human peripheral blood mononuclear cells were subjected to 20 µg/mL and 100 µg/mL of HE1, HE4, HE10, HE12, and 1018 for 24 h. Monocyte chemotactic protein-1 (MCP-1) production was assessed using sandwich enzyme linked immunosorbent assay (ELISA). The level of MCP-1 induction was similar for HE1, HE4, HE10, and 1018 at 100 µg/mL; (B) LPS (20 ng/mL) was co-administered with 20 µg/mL of each of the aforementioned peptides for 24 h. The tumor necrosis factor-alpha (TNF-α) production in response to both stimulants was assessed using enzyme linked immunosorbent assay (ELISA) and compared to lipopolysaccharides (LPS) alone. […] Lactate dehydrogenase release from peripheral blood mononuclear cells (PBMCs) was measured to assess the toxicity of 20 µg/mL and 100 µg/mL of 1018 and its derivatives.
These studies were done as described previously. Briefly, human peripheral blood mononuclear cells (PBMCs) were isolated from the blood of healthy individuals obtained under University of British Columbia (UBC) human ethics approval. PBMCs were diluted to 2 × 10^6 cells/ml in RPMI-1640 medium (Gibco®, Grand Island, NY, USA) supplemented with 10% fetal bovine serum (FBS). Subsequently, 250 µL of cells were seeded in each well of a 48-well dish. […] To assess chemokine induction after 24 h, the levels of chemokine MCP-1 (CCL2) were assessed in the supernatants three times independently using a sandwich ELISA kit (BioSource International, Grand Island, NY, USA). To look at the anti-inflammatory activity of the peptides in suppressing LPS-induced TNFα, P. aeruginosa LPS was added at a final concentration of 20 ng/mL as well as peptides at 20 μg/mL or 100 μg/mL. Secretion of TNF-α was monitored by capture ELISA (eBiosciences, San Diego, CA, USA) after 24 h.

[27] = test system: P. aeruginosa PA14; assay: Flow cell biofilm assay, confocal microscopy; assay type: cell-based, Pseudomonas aeruginosa; details: 72 h, 37 °C, inhibition and eradication conditions, Syto-9/PI confocal imaging
Method: For biofilm prevention conditions, the peptides were added to the medium from the beginning of the experiment. For eradication experiments, bacteria were allowed to develop structured 2-day-old biofilms prior to peptide and antibiotics treatment for the following 24 h.
Biofilms were grown for 72 h, in the absence or presence of the desired concentration of the different peptides, at 37 °C in flow chambers with channel dimensions of 1 by 4 by 40 mm, and then stained and examined by confocal microscopy, as described previously. For biofilm prevention studies the peptide was present in the flow-through medium throughout the biofilm growth while for eradication experiments, biofilms were allowed to grow for 2 days, before treating them with peptide for the last 24 h of the experiment.

[28] = test system: methicillin resistant Staphylococcus aureus (MRSA); assay: Biofilm inhibition in 96-well plates, static conditions; assay type: cell-based; details: polypropylene microtiter plates, BM2, 24 h, 37 °C, crystal violet, absorbance 595 nm
Method: Figure 3 Biofilm inhibitory activity against methicillin resistant Staphylococcus aureus (MRSA) in 96-well plates. […] Statistical significance was assessed using one-way ANOVA (*, p < 0.05; ***, p < 0.001; ****, p < 0.0001).

[29] = test system: TNF-α production by human peripheral blood mononuclear cells; assay: LPS-induced TNF-α production in PBMCs, ELISA; assay type: cell-based; details: LPS-stimulated PBMCs, Figure 4B
Method: as §2
These studies were done as described previously. Briefly, human peripheral blood mononuclear cells (PBMCs) were isolated from the blood of healthy individuals obtained under University of British Columbia (UBC) human ethics approval. […] To assess chemokine induction after 24 h, the levels of chemokine MCP-1 (CCL2) were assessed in the supernatants three times independently using a sandwich ELISA kit (BioSource International, Grand Island, NY, USA). […] Secretion of TNF-α was monitored by capture ELISA (eBiosciences, San Diego, CA, USA) after 24 h.

[30] = test system: B. cenocepacia 4813; assay: Anti-biofilm activity of 1018 derivatives (Table 4); assay type: cell-based, Burkholderia cenocepacia; details: 15 µg/mL peptide
Method: Biofilm formation was initially analyzed using a static abiotic solid surface assay as described elsewhere [21]. Dilutions (1/100) of overnight cultures were incubated in BM2 glucose medium (62 mM potassium phosphate buffer (pH 7), 7 mM (NH4)2SO4, 2 mM MgSO4, 10 μM FeSO4, 0.4% (wt/vol) glucose, 0.5% (wt/vol) Casamino Acids) in polypropylene microtiter plates (Fisher Scientific, Waltham, MA, USA) in the presence of the different peptides for 22 h at 37 °C. Planktonic cells were removed and biofilm cells adhering to the side of the tubes were stained with crystal violet, extracted into ethanol, and the optical density at 595 nm (OD595) measured using a microtiter plate reader (Bio-Tek Instruments Inc., Winooski, VT, USA). Peptides were added at time zero (prior to adding the diluted, overnight cultures) at various concentrations, and the decrease in biofilm formation was recorded at 22 h for P. aeruginosa, Burkholderia and Methicillin-resistant Staphylococcus aureus isolates.

[31] = planktonic cells, broth microdilution, BHI, 5 × 10^5 CFU/mL, 37 °C, performed at least three times
[32] = planktonic cells, broth microdilution, BHI, 5 × 10^5 CFU/mL, 37 °C, 18 h, performed at least three times

CC[C@H](C)[C@H](NC(=O)[C@H](CCCCN)NC(=O)[C@H](CCC(=O)O)NC(=O)[C@H](CCCCN)NC(=O)[C@H](CO)NC(=O)[C@H](CCCCN)NC(=O)[C@H](CCCNC(=N)N)NC(=O)[C@H](Cc1ccccc1)NC(=O)[C@H](Cc1ccccc1)NC(=O)[C@H](CC(=O)O)NC(=O)CNC(=O)[C@H](CC(C)C)NC(=O)[C@@H](N)CC(C)C)C(=O)NCC(=O)N[C@@H](CCCCN)C(=O)N[C@@H](CCC(=O)O)C(=O)N[C@@H](Cc1ccccc1)C(=O)N[C@@H](CCCCN)C(=O)N[C@@H](CCCNC(=N)N)C(=O)N[C@H](C(=O)N[C@H](C(=O)N[C@@H](CCC(N)=O)C(=O)N[C@@H](CCCNC(=N)N)C(=O)N[C@H](C(=O)N[C@@H](CCCCN)C(=O)N[C@@H](CC(=O)O)C(=O)N[C@@H](Cc1ccccc1)C(=O)N[C@@H](CC(C)C)C(=O)N[C@@H](CCCNC(=N)N)C(=O)N[C@@H](CC(N)=O)C(=O)N[C@@H](CC(C)C)C(=O)N[C@H](C(=O)N1CCC[C@H]1C(=O)N[C@@H](CCCNC(=N)N)C(=O)N[C@H](C(=O)N[C@@H](CCC(=O)O)C(=O)N[C@@H](CO)C(=O)O)[C@@H](C)O)C(C)C)[C@@H](C)CC)C(C)C)[C@@H](C)CC [LL-37]
MIC [1, 31]: >512 µg/mL | MIC [2, 31]: >256 µg/mL | MIC [3, 31]: >256 µg/mL | MIC [4, 31]: >512 µg/mL | MIC [5, 31]: >512 µg/mL | MIC [6, 31]: >512 µg/mL | MIC [7, 31]: >512 µg/mL | MIC [8, 31]: >512 µg/mL | MIC [9, 32]: >128 µg/mL | MIC [10, 32]: >256 µg/mL | MIC [11, 32]: >128 µg/mL | MIC [12, 32]: 64 µg/mL (≈ 14.2 µM) | MIC [13, 32]: >128 µg/mL | MIC [14, 32]: >128 µg/mL | MIC [15, 32]: >128 µg/mL | MIC [16, 32]: 256 µg/mL (≈ 57 µM) | MIC [17, 32]: >128 µg/mL | MIC [18, 32]: 256 µg/mL (≈ 57 µM) | MIC [19, 32]: 256 µg/mL (≈ 57 µM) | MIC [20, 32]: >256 µg/mL | MIC [21, 31]: 32 µg/mL (≈ 7.12 µM) | MIC [22, 32]: 32 µg/mL (≈ 7.12 µM) | decrease in biofilm formation [23]: 50%

CC[C@H](C)CCCCC(=O)N[C@@H](CCN)C(=O)N[C@H](C(=O)N[C@@H](CCN)C(=O)N[C@H]1CCNC(=O)[C@H]([C@@H](C)O)NC(=O)[C@H](CCN)NC(=O)[C@H](CCN)NC(=O)[C@H](CC(C)C)NC(=O)[C@@H](Cc2ccccc2)NC(=O)[C@H](CCN)NC1=O)[C@@H](C)O [Polymyxin B] (X1-[Dab]T[Dab][Dab][Dab][dF]L[Dab][Dab]T; lactam 4-C (inferred); N-terminus assumed)
MIC [1]: >128 µg/mL | MIC [2]: >128 µg/mL | MIC [3]: >128 µg/mL | MIC [4]: >128 µg/mL | MIC [5]: >128 µg/mL | MIC [6]: >128 µg/mL | MIC [7]: >128 µg/mL | MIC [8]: >128 µg/mL | MIC ([9]; 1172 (Classic, 18 h)): 2 µg/mL (≈ 1.66 µM) | MIC ([10]; 2631 (Classic, 18 h)): 4 µg/mL (≈ 3.32 µM) | MIC ([11]; 2639 (Mucoid, 18 h)): 2 µg/mL (≈ 1.66 µM) | MIC ([12]; 3195 (Classic, 18 h)): 2 µg/mL (≈ 1.66 µM) | MIC ([13]; 3330 (Classic, 18 h)): 2 µg/mL (≈ 1.66 µM) | MIC ([14]; 4020 (Classic, 18 h)): 2 µg/mL (≈ 1.66 µM) | MIC ([15]; 4608 (Mucoid, 18 h)): 2 µg/mL (≈ 1.66 µM) | MIC ([16]; 7632 (Classic, 18 h)): 2 µg/mL (≈ 1.66 µM) | MIC ([17]; 7633 (Entire, 18 h)): 2 µg/mL (≈ 1.66 µM) | MIC ([18]; C2773 (Classic, 18 h)): 4 µg/mL (≈ 3.32 µM) | MIC ([19]; C4276 (Classic, 18 h)): 2 µg/mL (≈ 1.66 µM) | MIC ([20]; C4278 (Mucoid, 18 h)): 2 µg/mL (≈ 1.66 µM) | MIC [21]: 2 µg/mL (≈ 1.66 µM) | MIC ([22]; PA14, 18 h): 2 µg/mL (≈ 1.66 µM)

KRWWKWIRW-NH2 (C-terminus assumed) [HHC-10]
MIC against planktonic cells of Burkholderia strains [24]: > 256 µg/mL

KRWWKWWRR-NH2 (C-terminus assumed) [HHC-36]
MIC against planktonic cells of Burkholderia strains [24]: > 256 µg/mL

RFKRVARVIW [HE12]
MIC ([22]; PA14, 18 h): 80 µg/mL

RRWIRVAVILRV [HE1]
Anti-Biofilm Activity (% Decrease in Biofilm) [25]: 93% | level of MCP-1 induction at 100 µg/mL [26]: similar | MCP-1 induction [26]: significantly induced MCP-1

VRLI--VRIWRR [HE10, 1018 derivative, truncated to remove hydrophobic patch]
anti-biofilm activity in flow cells [27]: strong anti-biofilm activity comparable with that of 1018 | biofilm inhibitory activity against MRSA compared to 1018 [28]: notably more active | level of MCP-1 induction at 100 µg/mL [26]: similar | MCP-1 induction [26]: significantly induced MCP-1 | suppression of TNF-α production [29]: strongly suppressing the production of TNF-α

VRLIRAVRAWRV [HE2, 1018 derivative, break hydrophobicity; maintain charge]
Anti-Biofilm Activity (% Decrease in Biofilm) [25]: 42% | Anti-Biofilm Activity (% Decrease in Biofilm) [30]: 24%

VRLIWAVRIWRR [HE4]
MIC ([22]; PA14, 18 h): 80 µg/mL

VRWARVARILRV [HE3, 1018 derivative, reverse of HE2]
Anti-Biofilm Activity (% Decrease in Biofilm) [25]: 31% | Anti-Biofilm Activity (% Decrease in Biofilm) [30]: 21%
